Test results reported in ChEMBL document CHEMBL5137081, “N-Heterocyclic 3-Pyridyl Carboxamide Inhibitors of DHODH for the Treatment of Acute Myelogenous Leukemia” (J Med Chem, 2022).

Assays:
[1] = system: MOLM-13; assay: Antiproliferative activity against human MOLM-13 cells incubated for 72 hrs by CellTiter-Glo assay; assay type: functional, cell-based; conditions: MOLM-13, 72 h
[2] = molecular target: T1, Cytochrome P450 1A2 (Homo sapiens, UniProt P05177); assay: Inhibition of CYP1A2 in human liver microsomes incubated for 10 mins by LC-MS/MS analysis; assay type: ADME, Microsome
T1 sequence (P05177 whole entry): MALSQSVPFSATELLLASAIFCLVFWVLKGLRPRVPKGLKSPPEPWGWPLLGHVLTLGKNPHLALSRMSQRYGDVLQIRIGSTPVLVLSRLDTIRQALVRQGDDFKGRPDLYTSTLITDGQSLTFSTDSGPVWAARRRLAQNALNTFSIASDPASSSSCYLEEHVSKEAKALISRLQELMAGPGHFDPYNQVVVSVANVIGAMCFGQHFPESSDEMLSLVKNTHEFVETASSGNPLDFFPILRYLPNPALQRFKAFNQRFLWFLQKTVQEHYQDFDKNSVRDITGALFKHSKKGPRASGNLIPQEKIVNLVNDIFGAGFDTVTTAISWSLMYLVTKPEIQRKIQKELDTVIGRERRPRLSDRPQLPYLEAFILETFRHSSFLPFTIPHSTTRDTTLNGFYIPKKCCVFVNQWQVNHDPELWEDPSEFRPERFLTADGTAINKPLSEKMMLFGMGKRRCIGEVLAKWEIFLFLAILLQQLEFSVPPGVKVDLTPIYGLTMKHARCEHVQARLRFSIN

[3] = molecular target: Cytochrome P450 2D6 (Homo sapiens, UniProt P10635); assay: Inhibition of CYP2D6 in human liver microsomes incubated for 10 mins by LC-MS/MS analysis; assay type: ADME, Microsome
[4] = molecular target: Cytochrome P450 3A4 (Homo sapiens, UniProt P08684); assay: Inhibition of CYP3A4 in human liver microsomes using midazolam as substrate measured after 5 mins by LC-MS/MS analysis; assay type: ADME, Microsome
[5] = Half life in Sprague-Dawley rat at 10 mg/kg, po or 2 mg/kg, iv measured upto 24 hrs by LC-MS/MS analysis; assay type: ADME, organism-based; conditions: in vivo
[6] = AUC(0 to infinity) in C57BL/6 mouse at 10 mg/kg, po or 2 mg/kg, iv measured upto 24 hrs by LC-MS/MS analysis; assay type: ADME, organism-based; set-up: time < 24 hrs, dose 10 mg/kg, route po; conditions: in vivo
[7] = system: MOLM-13; assay: Antitumor activity against human MOLM-13 cells xenografted in NSG mouse assessed as tumor growth inhibition at 10 mg/kg, po qd administered for 5 days relative to control; assay type: functional; conditions: MOLM-13, 120 h, time 5 day, read-out: TGI
[8] = system: MOLM-13; assay: Antitumor activity against human MOLM-13 cells xenografted in NSG mouse assessed as tumor growth inhibition at 20 mg/kg, po qd administered for 5 days relative to control; assay type: functional; conditions: MOLM-13, 120 h, time 5 day, read-out: TGI
[9] = Toxicity in NSG mouse xenografted with human MOLM-13 cells assessed as change in body weight at 10 to 20 mg/kg, po qd administered for 5 days; assay type: organism-based; conditions: in vivo, 120 h, dose 10-20 mg/kg, time 5 day
[10] = system: MDR1; assay: Efflux ratio of apparent permeability across basolateral to apical side over apical to basolateral side in dog MDCK-MDR1 cells; assay type: ADME, cell-based, Canis lupus familiaris
[11] = system: MOLM-13; assay: Antitumor activity against human MOLM-13 cells xenografted in NSG mouse assessed as tumor growth inhibition at 1.9 mg/kg, po qd administered for 5 days relative to control; assay type: functional; conditions: time 5 day
[12] = system: MOLM-13; assay: Antitumor activity against human MOLM-13 cells xenografted in NSG mouse assessed as tumor growth inhibition at 3.75 mg/kg, po qd administered for 5 days relative to control; assay type: functional; conditions: time 5 day
[13] = system: MOLM-13; assay: Antitumor activity against human MOLM-13 cells xenografted in NSG mouse assessed as tumor growth inhibition at 7.5 mg/kg, po qd administered for 5 days relative to control; assay type: functional; conditions: time 5 day
[14] = Toxicity in NSG mouse xenografted with human MOLM-13 cells assessed as change in body weight at 1.5 to 7.9 mg/kg, po qd administered for 5 days; assay type: organism-based; conditions: in vivo, 120 h, dose 1.5-7.9 mg/kg, time 5 day

Cytochrome P450 2D6, sequence (P10635 whole entry): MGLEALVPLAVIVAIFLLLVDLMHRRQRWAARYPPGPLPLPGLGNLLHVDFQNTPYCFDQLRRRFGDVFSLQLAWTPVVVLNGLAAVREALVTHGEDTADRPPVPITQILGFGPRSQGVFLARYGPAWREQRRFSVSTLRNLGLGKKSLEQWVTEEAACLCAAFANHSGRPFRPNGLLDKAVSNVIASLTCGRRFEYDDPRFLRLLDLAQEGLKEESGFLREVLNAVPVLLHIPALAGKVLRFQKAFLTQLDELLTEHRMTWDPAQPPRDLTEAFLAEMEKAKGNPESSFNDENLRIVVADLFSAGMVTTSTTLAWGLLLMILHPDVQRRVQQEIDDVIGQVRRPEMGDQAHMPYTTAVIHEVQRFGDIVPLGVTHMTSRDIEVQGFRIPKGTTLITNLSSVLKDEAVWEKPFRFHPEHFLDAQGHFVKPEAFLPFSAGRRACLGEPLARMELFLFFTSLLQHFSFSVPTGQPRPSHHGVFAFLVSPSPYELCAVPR
Cytochrome P450 3A4, sequence (P08684 whole entry): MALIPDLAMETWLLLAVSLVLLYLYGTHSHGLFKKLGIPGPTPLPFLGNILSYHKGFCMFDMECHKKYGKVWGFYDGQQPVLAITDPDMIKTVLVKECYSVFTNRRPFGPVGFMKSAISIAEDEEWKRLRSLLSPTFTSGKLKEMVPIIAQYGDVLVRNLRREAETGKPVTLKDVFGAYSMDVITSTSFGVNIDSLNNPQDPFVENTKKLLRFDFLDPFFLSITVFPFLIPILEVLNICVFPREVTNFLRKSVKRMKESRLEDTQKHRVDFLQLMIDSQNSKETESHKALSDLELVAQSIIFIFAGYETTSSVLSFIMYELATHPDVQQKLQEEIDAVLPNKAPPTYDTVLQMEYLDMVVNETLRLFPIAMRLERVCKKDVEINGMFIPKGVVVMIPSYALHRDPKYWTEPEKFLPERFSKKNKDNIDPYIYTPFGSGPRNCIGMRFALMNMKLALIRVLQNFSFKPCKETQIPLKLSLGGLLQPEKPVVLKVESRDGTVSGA

IC50 [1] [µM] | IC50 [2] [µM] | IC50 [3] [µM] | IC50 [4] [µM] | half-life [5] [h] | AUC(0-inf) [6] [ng·h/mL] | efflux ratio [10] | SMILES | inhibition in vivo at 10 mg/kg [7] [%] | inhibition in vivo at 20 mg/kg [8] [%] | Activity [9] | TGI [11] [%] | TGI [12] [%] | TGI [13] [%] | Activity [14]
0.002 | > 10 | > 10 | > 10 | 2 | 16100 | – | CCn1c(CO)nn(-c2nc(O[C@@H](C)C(F)(F)F)c(C(=O)Nc3c(C)ccnc3Cl)cc2F)c1=O | 44 | 60 | Non-Toxic | – | – | – | –
0.0004 | > 10 | > 10 | > 10 | 4 | 25000 | > 30 | CCn1c(CO)nn(-c2nc(O[C@@H](C)C(F)(F)F)c(C(=O)Nc3c(C)cnc(OC)c3Cl)cc2F)c1=O | – | – | – | 71 | 76 | 79 | Non-Toxic
